According to US20240368134A1, “AROMATIC COMPOUND, PHARMACEUTICAL COMPOSITION, AND APPLICATION THEREOF” (SHANGHAI KYGENT PHARMACEUTICAL CO., LTD, priority 2021, published 2024):
pIC50: −log10 of the molar value.

system: NCI-H2052 cells; assay: Tumor cell proliferation inhibition experiment (Cell Titer Glo), NCI-H2052; type: cell-based; details: Homo sapiens, 72 h, NCI-H2052 lung cancer cells, three days incubation
Method: (§1) Cell Titer Glo luminescent cell viability assay kit was used to quantify the ATP content in cells, so as to quantify the number of viable cells. […] On the second day, the compound was added to the 96-well plate after a three-fold serial dilution to eight concentrations, and incubated at 37° C. for three days in the 5% carbon dioxide incubator. The culture medium was treated with the addition of Cell Titer Glo luminescent cell viability assay kit (Promega G7570) reagent, incubated for 10 minutes, and then placed in Envision (Pelkin Elmer) to read the luminescence signal. DMSO was used instead of the compound as a control to calculate the inhibition rate (inhibition rate %=(1−compound signal/DMSO signal)*100), and then standard four parameter curve fitting was used to calculate the inhibitory activity IC50.

Row | pIC50 | Compound
1 | 6.05 | CNC(=O)c1cc2c(c(F)c1-c1c(Cl)c(F)cc3c1C[C@@](CN[C@H]1CC[C@](C)(O)CC1)(c1ccccc1)O3)CCC2O (some centres unmarked) [Compound 42a]
2 | 5.04 | CNC(=O)c1cnc(OCCO)c(OC)c1-c1c(Cl)c(F)cc2c1C[C@](c1ccccc1)([C@@H]1CCCN1)O2 [Compound 7a]
3 | 6.70 | NC(=O)c1cc2c(c(F)c1-c1c(Cl)c(F)cc3c1C[C@](c1ccccc1)([C@@H]1CCCN1)O3)CCC2 [Compound 52a]
4 | < 5.00 | CNC(=O)c1cnc(OCCO)c(N)c1-c1c(Cl)c(F)cc2c1C[C@](c1ccccc1)([C@@H]1CCCN1)O2 [Compound 8a]
5 | 6.68 | C[C@H]1c2c(cc(F)c(Cl)c2-c2c(C(N)=O)cc3c(c2F)C2CC2O3)O[C@]1(CN[C@H]1CC[C@](C)(O)CC1)c1ccccc1 (some centres unmarked) [Compound 27a]
6 | 6.03 | CNC(=O)c1cc2c(c(F)c1-c1c(Cl)c(F)cc3c1C[C@](c1ccccc1)([C@@H]1CCCN1)O3)CCC2S(C)(=O)=O (some centres unmarked) [Compound 46a]
7 | 6.62 | CNC(=O)c1cc2c(c(F)c1-c1c(Cl)c(F)cc3c1C[C@](c1ccccc1)([C@@H]1CCCN1)O3)CC(O)C2 (some centres unmarked) [Compound 49a]
8 | 5.73 | CNC(=O)c1cc2c(c(F)c1-c1c(Cl)c(F)cc3c1C[C@](c1ccccc1)([C@@H]1CCCN1)O3)N1CCCC1CO2 (some centres unmarked) [Compound 3a]
9 | 6.26 | CNC(=O)c1cc2c(c(F)c1-c1c(Cl)c(F)cc3c1C[C@@](CN[C@H]1CC[C@](C)(O)CC1)(c1ccccc1)O3)CCC2 [Compound 30a]
10 | 6.22 | CNC(=O)c1cc2c(c(F)c1-c1c(Cl)c(F)cc3c1C[C@](c1ccccc1)([C@@H]1CCCN1)O3)CCC2=O [Compound 40a]
11 | 6.23 | CNC(=O)c1cc2c(c(F)c1-c1c(Cl)c(F)cc3c1C[C@@](CN[C@H]1CC[C@](C)(O)CC1)(c1ccccc1)O3)[C@@H]1C[C@@H]1O2 (single isomer, unassigned) [Compound 14a2]
12 | < 5.00 | CNC(=O)c1cnc(OCCO)c(F)c1-c1c(Cl)c(F)cc2c1C[C@](c1ccccc1)(c1ccn[nH]1)O2 [Compound 11a]
13 | < 5.00 | CNC(=O)c1cc2c(c(F)c1-c1c(Cl)c(F)cc3c1C[C@](c1ccccc1)([C@@H]1CCCN1)O3)CC(=O)C2 [Compound 65a]
14 | 7.40 | CNC(=O)c1cc2c(c(F)c1-c1c(Cl)c(F)cc3c1[C@H](C)[C@@](CN[C@H]1CC[C@](C)(O)CC1)(c1ccccc1)O3)OC1CC21 (some centres unmarked) [Compound 26a]
15 | < 5.00 | CNC(=O)c1cnc(OCCO)c(F)c1-c1c(C#N)c(F)cc2c1C[C@](c1ccccc1)([C@@H]1CCCN1)O2 [Compound 12a]
16 | 6.70 | C[C@]1(O)CC[C@H](NC[C@@]2(c3ccccc3)Cc3c(cc(F)c(Cl)c3-c3c(C(N)=O)cc4c(c3F)C3CC3O4)O2)CC1 (some centres unmarked) [Compound 23a]
17 | < 5.00 | CNC(=O)c1cnc(OCCO)c(O)c1-c1c(Cl)c(F)cc2c1C[C@](c1ccccc1)([C@@H]1CCCN1)O2 [Compound 6a]
18 | 6.19 | CNC(=O)c1cc2c(c(F)c1-c1c(Cl)c(F)cc3c1C[C@](c1ccccc1)([C@@H]1CCCN1)O3)CCC2(F)F [Compound 36a]

same assay, conditions: NCI-H2052 lung cancer cells, three days incubation

Row | Compound | pIC50
19 | CNC(=O)c1cc2c(c(F)c1-c1c(Cl)c(F)cc3c1C[C@](c1ccccc1)([C@@H]1CCCN1)O3)C[C@H](O)[C@H]2C [Compound 57a1] | 6.35

system: MSTO-211H cells; assay: Tumor cell proliferation inhibition experiment (Cell Titer Glo), MSTO-211H; type: cell-based; details: Homo sapiens, 72 h, MSTO-211H lung cancer cells, three days incubation
Method: as §1

Row | pIC50 | Compound
20 | 6.14 | CNC(=O)c1cc2c(c(F)c1-c1c(Cl)c(F)cc3c1C[C@@](CN[C@H]1CC[C@](C)(O)CC1)(c1ccccc1)O3)CCC2O (some centres unmarked) [Compound 42a]
21 | 5.01 | CNC(=O)c1cnc(OCCO)c(OC)c1-c1c(Cl)c(F)cc2c1C[C@](c1ccccc1)([C@@H]1CCCN1)O2 [Compound 7a]
22 | 6.77 | NC(=O)c1cc2c(c(F)c1-c1c(Cl)c(F)cc3c1C[C@](c1ccccc1)([C@@H]1CCCN1)O3)CCC2 [Compound 52a]
23 | < 5.00 | CNC(=O)c1cnc(OCCO)c(N)c1-c1c(Cl)c(F)cc2c1C[C@](c1ccccc1)([C@@H]1CCCN1)O2 [Compound 8a]
24 | 7.00 | C[C@H]1c2c(cc(F)c(Cl)c2-c2c(C(N)=O)cc3c(c2F)C2CC2O3)O[C@]1(CN[C@H]1CC[C@](C)(O)CC1)c1ccccc1 (some centres unmarked) [Compound 27a]
25 | 6.19 | CNC(=O)c1cc2c(c(F)c1-c1c(Cl)c(F)cc3c1C[C@](c1ccccc1)([C@@H]1CCCN1)O3)CCC2S(C)(=O)=O (some centres unmarked) [Compound 46a]
26 | 6.82 | CNC(=O)c1cc2c(c(F)c1-c1c(Cl)c(F)cc3c1C[C@](c1ccccc1)([C@@H]1CCCN1)O3)CC(O)C2 (some centres unmarked) [Compound 49a]
27 | 6.01 | CNC(=O)c1cc2c(c(F)c1-c1c(Cl)c(F)cc3c1C[C@](c1ccccc1)([C@@H]1CCCN1)O3)N1CCCC1CO2 (some centres unmarked) [Compound 3a]
28 | 6.52 | CNC(=O)c1cc2c(c(F)c1-c1c(Cl)c(F)cc3c1C[C@@](CN[C@H]1CC[C@](C)(O)CC1)(c1ccccc1)O3)CCC2 [Compound 30a]
29 | 6.31 | CNC(=O)c1cc2c(c(F)c1-c1c(Cl)c(F)cc3c1C[C@](c1ccccc1)([C@@H]1CCCN1)O3)CCC2=O [Compound 40a]
30 | 6.41 | CNC(=O)c1cc2c(c(F)c1-c1c(Cl)c(F)cc3c1C[C@@](CN[C@H]1CC[C@](C)(O)CC1)(c1ccccc1)O3)[C@@H]1C[C@@H]1O2 (single isomer, unassigned) [Compound 14a2]
31 | < 5.00 | CNC(=O)c1cnc(OCCO)c(F)c1-c1c(Cl)c(F)cc2c1C[C@](c1ccccc1)(c1ccn[nH]1)O2 [Compound 11a]
32 | < 5.00 | CNC(=O)c1cc2c(c(F)c1-c1c(Cl)c(F)cc3c1C[C@](c1ccccc1)([C@@H]1CCCN1)O3)CC(=O)C2 [Compound 65a]
33 | 7.52 | CNC(=O)c1cc2c(c(F)c1-c1c(Cl)c(F)cc3c1[C@H](C)[C@@](CN[C@H]1CC[C@](C)(O)CC1)(c1ccccc1)O3)OC1CC21 (some centres unmarked) [Compound 26a]
34 | < 5.00 | CNC(=O)c1cnc(OCCO)c(F)c1-c1c(C#N)c(F)cc2c1C[C@](c1ccccc1)([C@@H]1CCCN1)O2 [Compound 12a]
35 | 6.96 | C[C@]1(O)CC[C@H](NC[C@@]2(c3ccccc3)Cc3c(cc(F)c(Cl)c3-c3c(C(N)=O)cc4c(c3F)C3CC3O4)O2)CC1 (some centres unmarked) [Compound 23a]
36 | < 5.00 | CNC(=O)c1cnc(OCCO)c(O)c1-c1c(Cl)c(F)cc2c1C[C@](c1ccccc1)([C@@H]1CCCN1)O2 [Compound 6a]
37 | 6.35 | CNC(=O)c1cc2c(c(F)c1-c1c(Cl)c(F)cc3c1C[C@](c1ccccc1)([C@@H]1CCCN1)O3)CCC2(F)F [Compound 36a]

same assay, conditions: MSTO-211H lung cancer cells, three days incubation

Row | Compound | pIC50
38 | CNC(=O)c1cc2c(c(F)c1-c1c(Cl)c(F)cc3c1C[C@](c1ccccc1)([C@@H]1CCCN1)O3)C[C@H](O)[C@H]2C [Compound 57a1] | 6.41
